Measured values from the NIST ThermoML archive (doi:10.1021/je300345m).
Numbers after ± are expanded uncertainties.

What was measured:
[1] = Liquid, Vibrating tube method
[2] = xn = mol fraction of the nth substance listed; settings: Liquid, Vibrating tube method, x2 = 0

Row | Structure (SMILES) | mass density ([1]; 298.15 K, 100 kPa) | mass density ([1]; 303.15 K, 100 kPa) | mass density ([1]; 308.15 K, 100 kPa) | mass density ([1]; 313.15 K, 100 kPa) | mass density ([1]; 318.15 K, 100 kPa) | mass density ([1]; 323.15 K, 100 kPa) | mass density ([1]; 328.15 K, 100 kPa) | mass density ([1]; 333.15 K, 100 kPa) | mass density ([1]; 338.15 K, 100 kPa) | mass density ([1]; 343.15 K, 100 kPa) | mass density ([1]; 348.15 K, 100 kPa) | mass density ([1]; 353.15 K, 100 kPa) | mass density ([1]; 358.15 K, 100 kPa) | mass density ([1]; 363.15 K, 100 kPa) | mass density ([1]; 373.15 K, 700 kPa) | mass density ([1]; 383.15 K, 700 kPa) | mass density ([1]; 393.15 K, 700 kPa) | mass density ([1]; 403.15 K, 700 kPa) | mass density ([1]; 413.15 K, 700 kPa) | mass density ([1]; 423.15 K, 700 kPa) | further results
1 | CN(CCO)CCO [N-methyldiethanolamine] | 1036 ± 3.1 kg/m3 | 1032.4 ± 3.1 kg/m3 | 1028.6 ± 3.1 kg/m3 | 1024.8 ± 3.1 kg/m3 | 1021 ± 3.1 kg/m3 | 1017.2 ± 3.1 kg/m3 | 1013.3 ± 3.1 kg/m3 | 1009.4 ± 3.1 kg/m3 | 1005.6 ± 3.1 kg/m3 | 1001.7 ± 3.1 kg/m3 | 997.7 ± 3.1 kg/m3 | 993.8 ± 3.1 kg/m3 | 989.9 ± 3.1 kg/m3 | 985.9 ± 3.1 kg/m3 | 978.6 ± 3.1 kg/m3 | 970.3 ± 3.1 kg/m3 | 962.1 ± 3.1 kg/m3 | 953.9 ± 3.1 kg/m3 | 945.6 ± 3.1 kg/m3 | 937 ± 3.1 kg/m3 | –
2 | OCCNCCO [diethanolamine] | 1093.6 ± 3.6 kg/m3 | 1090.4 ± 3.6 kg/m3 | 1087.1 ± 3.6 kg/m3 | 1083.8 ± 3.6 kg/m3 | 1080.6 ± 3.6 kg/m3 | 1077.4 ± 3.6 kg/m3 | 1074.1 ± 3.6 kg/m3 | 1070.8 ± 3.6 kg/m3 | 1067.4 ± 3.6 kg/m3 | 1064 ± 3.6 kg/m3 | 1060.6 ± 3.6 kg/m3 | 1057.2 ± 3.6 kg/m3 | 1053.7 ± 3.6 kg/m3 | 1050.1 ± 3.6 kg/m3 | 1043.3 ± 3.6 kg/m3 | 1035.5 ± 3.6 kg/m3 | 1028.1 ± 3.6 kg/m3 | 1020.5 ± 3.6 kg/m3 | 1012.9 ± 3.6 kg/m3 | 1004.8 ± 3.6 kg/m3 | –
3 | O [water] + CN(CCO)CCO | – | – | – | – | – | – | – | – | – | – | – | – | – | – | – | – | – | – | – | – | mass density ([2]; 323.15 K, 100 kPa): 988 ± 3 kg/m3; mass density ([2]; 328.15 K, 100 kPa): 985.7 ± 3 kg/m3; mass density ([2]; 333.15 K, 100 kPa): 983.2 ± 3 kg/m3; mass density ([2]; 338.15 K, 100 kPa): 980.5 ± 3 kg/m3; mass density ([2]; 343.15 K, 100 kPa): 977.7 ± 3 kg/m3; mass density ([2]; 348.15 K, 100 kPa): 974.8 ± 3 kg/m3; mass density ([2]; 353.15 K, 100 kPa): 971.8 ± 3 kg/m3; mass density ([2]; 358.15 K, 100 kPa): 968.6 ± 3 kg/m3; mass density ([2]; 363.15 K, 100 kPa): 965.3 ± 3 kg/m3; mass density ([2]; 373.15 K, 700 kPa): 958.6 ± 3 kg/m3; mass density ([2]; 383.15 K, 700 kPa): 951.2 ± 3 kg/m3; mass density ([2]; 393.15 K, 700 kPa): 943.4 ± 3 kg/m3; mass density ([2]; 403.15 K, 700 kPa): 935.1 ± 3 kg/m3; mass density ([2]; 413.15 K, 700 kPa): 926.3 ± 3 kg/m3; mass density ([2]; 423.15 K, 700 kPa): 917.1 ± 3 kg/m3
4 | O [water] + OCCNCCO | – | – | – | – | – | – | – | – | – | – | – | – | – | – | – | – | – | – | – | – | mass density ([2]; 323.15 K, 100 kPa): 988 ± 3.5 kg/m3; mass density ([2]; 328.15 K, 100 kPa): 985.7 ± 3.5 kg/m3; mass density ([2]; 333.15 K, 100 kPa): 983.2 ± 3.5 kg/m3; mass density ([2]; 338.15 K, 100 kPa): 980.5 ± 3.5 kg/m3; mass density ([2]; 343.15 K, 100 kPa): 977.7 ± 3.5 kg/m3; mass density ([2]; 348.15 K, 100 kPa): 974.8 ± 3.5 kg/m3; mass density ([2]; 353.15 K, 100 kPa): 971.8 ± 3.5 kg/m3; mass density ([2]; 358.15 K, 100 kPa): 968.6 ± 3.5 kg/m3; mass density ([2]; 363.15 K, 100 kPa): 965.3 ± 3.5 kg/m3; mass density ([2]; 373.15 K, 700 kPa): 958.6 ± 3.5 kg/m3; mass density ([2]; 383.15 K, 700 kPa): 951.2 ± 3.5 kg/m3; mass density ([2]; 393.15 K, 700 kPa): 943.4 ± 3.5 kg/m3; mass density ([2]; 403.15 K, 700 kPa): 935.1 ± 3.5 kg/m3; mass density ([2]; 413.15 K, 700 kPa): 926.3 ± 3.5 kg/m3; mass density ([2]; 423.15 K, 700 kPa): 917.1 ± 3.5 kg/m3
